This note sets out measurements from Sander's compilation of Henry's law constants (doi:10.1002/jps.2600670510).

The nature of the data set: Henry solubility constant Hcp at 298.15 K (mol/(m3 Pa)). The following applies: reference: Rytting et al. (1978).
As to `CCCCCO` [1-pentanol], the “Henry solubility constant Hcp” value turned out to be 0.9.

Regarding `CCCCC` [pentane], the “Henry solubility constant Hcp” value was found to be 7.8e-06. Under `CCCCN` [1-butanamine] stands 0.52. Under `CCCCCCC` [heptane] stands 4.8e-06; under `CCCCCN` [1-pentanamine], 0.4; under `CC(C)CO` [2-methyl-1-propanol], 0.8. With `CCCCCCCCN` [1-octanamine], the “Henry solubility constant Hcp” value came out at 0.19. For `CCCCCCCC` [octane] the value was 3.1e-06; for `CCCCCCCN` [1-heptanamine], 0.24; for `CCC(C)O` (configuration not stated) [2-butanol], 0.98. Under `CCCCCC` [hexane] stands 5.4e-06; under `CCCCCCN` [1-hexanamine], 0.32.
